Patent US4041038A, “1-(3-Phenylpropyl)-4-(beta-alkoxyacryloyl)piperazine derivatives” (Kyorin Pharmaceutical Co., Ltd., priority 1975, dated 1977)

Assays:
[1] = 50% anesthetic dose in mice (i.v.); type: in vivo, mouse; details: for selectivity ratio: in vivo, read-out: LD50/AD50; for selectivity ratio / ED50: iv, mouse, i.v.; for ED50: read-out: AD50 (50% anesthetic dose)
Source text: (§1) The compounds included in this invention are useful as general anesthetics.

[2] = 50% anesthetic dose in rats (i.v.); type: in vivo, rat; details: for selectivity ratio: in vivo, read-out: LD50/AD50; for selectivity ratio / ED50: iv, rat, i.v.; for ED50: read-out: AD50 (50% anesthetic dose)
Source text: as §1

[3] = 50% lethal dose in mice (i.v.); details: in vivo, iv, mouse
Source text: as §1

[4] = 50% lethal dose in rats (i.v.); details: in vivo, iv, rat
Source text: as §1

[5] = anesthesia, sleeping time and post-anesthetic recovery in rabbits (i.v.); type: in vivo, rabbit
Description: In rabbits, KA-100 caused an anesthesia at the doses of more than 10 mg/kg (i.v.), and the sleeping times at 20 and 30 mg/kg were 20 min. and more than 20 min. respectively.
(§2) Thiopental-Na caused an anesthesia lasted for 13 min. after injection of 20 mg/kg and 30 min. after 30 mg/kg.

[6] = tested on: withdrawal reflex against nociceptive stimuli; assay: withdrawal reflex against nociceptive stimuli (pinching of hind leg toes, small incision of abdomen) in rabbits; type: in vivo, rabbit; details: for anti-nociceptive activity: same doses for KA-100 and thiopental-Na
Description: as §2

extension of hind legs = assay: reflex against extension of hind legs / muscular relaxation in rabbits; type: in vivo, rabbit; details: for muscular relaxant activity / muscular rigidity: same doses for KA-100 and thiopental-Na
Description: as §2

solubility in water = type: physicochemical; details: maleate, nearly physiological pH (pH 6)
[7] = disturbance of blood vessels; details: maleate

SMILES	selectivity ratio [1]	ED50 [1] [mg/kg]	selectivity ratio [2]	ED50 [2] [mg/kg]	LD50 [3] [mg/kg]	LD50 [4] [mg/kg]	sleeping time / duration of anesthesia ([5]; 20 mg/kg) [min]	sleeping time / duration of anesthesia ([5]; 30 mg/kg)	anti-nociceptive activity [6]	muscular relaxant activity / muscular rigidity (extension of hind legs)	anesthetic effect ([1]; mice)	anesthetic effect ([2]; rats)	anesthetic effect [5]	pharmacological potency ([5]; KA-100 and thiopental-Na compared)	minimal effective dose ([5]; Oryctolagus cuniculus, iv, read-out: doses that caused an anesthesia) [mg/kg]	recovery from ataxic state in post-anesthetic period ([5]; compared with thiopental-Na)	withdrawal reflex against nociceptive stimuli ([6]; more than 20 mg/kg)	reflex against extension of hind legs (extension of hind legs; more than 20 mg/kg)	solubility in water (solubility in water)	disturbance of blood vessels [7]
CCCC(C)C1(CC)C(=O)NC(=S)NC1=O (stereo not drawn) [Thiopental-Na, reference compound]	4.3	20.9	7.5	10.7	90.9	80.3	13	30 min	no anti-nociceptive effect	induced muscular rigidity	–	–	–	–	–	–	–	–	–	–
CCOC=CC(=O)N1C[C@H](C)N(CCCc2ccccc2)C[C@H]1C.O=C(O)/C=C\C(=O)O (relative stereo) [KA-100, trans-1-(3-phenylpropyl)-2,5-dimethyl-4-(β-ethoxyacryloyl)piperazine maleate]	4.9	7.6	12.6	4.8	37.3	60.2	20	more than 20 min.	anti-nociceptive	muscular relaxant activity	good anesthetic effect	good anesthetic effect	good anesthetic effect	practically equal	> 10	far more rapid	lost the withdrawal reflex against nociceptive stimuli	lost the withdrawal reflex against nociceptive stimuli (pinching of hind leg toes by a forceps or small incision of abdomen) and against extension of hind legs	soluble in water	does not disturb blood vessels
